From patent US20190225650A1, “PEPTIDOMIMETIC MACROCYCLES AND USE THEREOF IN REGULATING HIF1ALPHA” (AILERON THERAPEUTICS, INC., priority 2013, published 2019)
Bridge positions count the residues as written; N and C are the ends. Square brackets hold non-standard residues; d marks the D form. Peptide text beside a SMILES is read from it. R8 = C=CCCCCCC[C@@](C)(N)C(=O)O; S5 = C=CCCC[C@](C)(N)C(=O)O; Nle = CCCC[C@H](N)C(=O)O

Columns and labels:
[1] = biological target: T1, flag-tagged HIF1α (AA 786-826) / His6-tagged p300 (AA 323-423) complex (Homo sapiens, UniProt Q09472); test: HIF1α p300 displacement assay (TR FRET, +CHAPS); format: binding; settings: read-out: IC50 (nM) (HIF1α_p300 Displacement + CHAPS)
T1 construct: His6-tagged p300 (AA 323-423); made in house; host or cells: E. coli (pETDuet vector)
Summary of the method: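 The co-expressed flag-HIF1α (786-826)/His6-p300 (323-423) complex, purified from E. coli with 0.1 mM ZnSO4, was used at 300 nM final with competitor peptides for 1 h at room temperature. Buffer was 150 mM NaCl, 20 mM HEPES pH 7.4, 7.5 mM CHAPS and 1 mM DTT. Anti-Flag-K (0.5 μM) and anti-His-D2 (4 nM) were then added for 2 h, and IC50s were fitted from the TR-FRET ratio.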

[2] = system: HRE-bla ME-180 cells; test: Reporter gene assay (HRE-bla ME-180 HIF reporter, GeneBLAzer); format: cell-based, human; settings: for EC50: 24 hour normoxia
Summary of the method: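 A FRET β-lactamase readout of HIF transcription was used. After compound treatment in 0.3% DMSO/media under normoxic conditions, 20 μl of 6× LiveBLAzer-FRET B/G (CCF4-AM) substrate was added. Plates sat 3 hr at room temperature in the dark and were read at 409 Ex/460Em and 409Ex/530Em on a Synergy 2. Inhibition was compared against DMSO vehicle controls, with chetomin as positive control.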

[3] = system: HRE-bla ME-180 cells; test: Cell proliferation assay (viability, MTT, 1% FBS); format: cell-based, human
Summary of the method: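 ME-180 cells (2×10^4/well) in Opti-MEM with 1% FBS were pretreated 16 h under normoxia (21% O2), vehicle 0.5% DMSO final. Incubation then continued under normoxia or hypoxia (1% O2); viable cells quantified by MTT-type CellTiter 96 assay.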

| IC50 [1] | EC50 [2] | SMILES | 18 h Avg % max inhibition at top conc (HIF Rptr-24 hrs normoxia) (μM) [2] | Viability 1% FBS AVG (MTT V3-24 hr Normoxia) (μM) [3] |
| --- | --- | --- | --- | --- |
| 400 to 700 nM | > 30 µM | CCCC[C@H](NC(=O)[C@]1(C)CCCC=CCCCCCC[C@@](C)(NC(=O)[C@H](CCC(=O)O)NC(=O)[C@H](CCC(=O)O)NC(=O)[C@H](CC(=O)O)NC(=O)[C@@H](NC(=O)[C@H](CC(N)=O)NC(=O)[C@@H](NC(=O)[C@H](CCC(N)=O)NC(=O)[C@H](CC(=O)O)NC(=O)[C@H](CC(C)C)NC(=O)[C@H](C)NC(=O)[C@H](CCCNC(=N)N)NC(=O)[C@H](CC(C)C)NC(=O)[C@H](CC(C)C)NC(=O)[C@H](CCC(=O)O)NC(=O)[C@H](CCC(=O)O)NC(=O)CNC(=O)[C@H](CCC(N)=O)NC(=O)[C@H](CC(C)C)NC(=O)[C@H](CC(C)C)NC(C)=O)C(C)C)[C@@H](C)CC)C(=O)N[C@@H](CC(C)C)C(=O)N[C@@H](CCCC)C(=O)N[C@@H](CO)C(=O)N[C@@H](CC(C)C)C(=O)N[C@@H](C(C)C)C(=O)N[C@@H]([C@@H](C)CC)C(=O)N1)C(N)=O [SP-337] (Ac-LLQGEELLRALDQVNIDEE[R8]L[Nle]SLVI[S5][Nle]-NH2; staple 20-27) | + (<10: +) | ++++ (≥30: ++++) |
| > 700 nM | > 30 µM | CCCC[C@@H]1NC(=O)[C@H](CC(C)C)NC(=O)[C@H](C(C)C)NC(=O)[C@@](C)(NC(=O)[C@H](CCC(=O)O)NC(=O)[C@H](CC(=O)O)NC(=O)[C@@H](NC(=O)[C@H](Cc2ccccc2)NC(C)=O)[C@@H](C)CC)CCCC=CCCC[C@@](C)(C(=O)N[C@@H](CC(C)C)C(=O)N[C@H](C(=O)N[C@H](C(=O)N[C@@H](CCC(=O)O)C(=O)N[C@@H](CCC(N)=O)C(=O)N[C@@H](C)C(=O)N[C@@H](CC(C)C)C(N)=O)[C@@H](C)CC)C(C)C)NC1=O [SP-146] (Ac-FIDE[S5]VL[Nle][S5]LVIEQAL-NH2; staple 5-9) | +++ (≤25 but <50: +++) | ++++ (≥30: ++++) |
| > 700 nM | > 30 µM | CC[C@H](C)[C@H](NC(=O)[C@H](CCCNC(=N)N)NC(=O)[C@H](CC(N)=O)NC(=O)[C@H](CC(C)C)NC(=O)[C@H](C)NC(=O)[C@H](CCSC)NC(=O)[C@]1(C)CCCC=CCCC[C@](C)(NC(=O)[C@H](CCSC)NC(=O)[C@H](CC(C)C)NC(=O)[C@@H](NC(=O)[C@H](C)NC(=O)[C@H](CCC(N)=O)NC(=O)[C@H](CC(=O)O)NC(=O)[C@@H](NC(=O)[C@H](Cc2ccccc2)NC(C)=O)[C@@H](C)CC)C(C)C)C(=O)N[C@@H](CC(C)C)C(=O)N[C@@H](C(C)C)C(=O)N[C@@H]([C@@H](C)CC)C(=O)N1)C(N)=O [SP-270] (Ac-FIDQAVLM[S5]LVI[S5]MALNRI-NH2; staple 9-13) | ++ (≤10 but <25: ++) | ++++ (≥30: ++++) |
| 200 to 400 nM | > 30 µM | CCCC[C@H](NC(=O)[C@H](CCC(=O)O)NC(=O)[C@]1(C)CCCC=CCCCCCC[C@@](C)(NC(=O)[C@H](CCC(=O)O)NC(=O)[C@H](CC(=O)O)NC(=O)[C@@H](NC(=O)[C@H](CC(N)=O)NC(=O)[C@@H](NC(=O)[C@]2(C)CCCC=CCCCCCC[C@@](C)(NC(=O)[C@H](CCC(=O)O)NC(=O)CNC(=O)[C@H](CCC(N)=O)NC(=O)[C@H](CC(C)C)NC(=O)[C@H](CC(C)C)NC(C)=O)C(=O)N[C@@H](CC(C)C)C(=O)N[C@@H](CC(C)C)C(=O)N[C@@H](CCCNC(=N)N)C(=O)N[C@@H](C)C(=O)N[C@@H](CC(C)C)C(=O)N[C@@H](C)C(=O)N2)C(C)C)[C@@H](C)CC)C(=O)N[C@@H](C(C)C)C(=O)N[C@@H](CC(C)C)C(=O)N[C@@H](CCCC)C(=O)N[C@@H](CO)C(=O)N[C@@H](CC(C)C)C(=O)N[C@@H](C(C)C)C(=O)N1)C(N)=O [SP-354] (Ac-LLQGE[R8]LLRALA[S5]VNIDE[R8]VL[Nle]SLV[S5]E[Nle]-NH2; staple 6-13, 19-26) | +++ (≤25 but <50: +++) | ++++ (≥30: ++++) |
